According to patent publication US20230201632A1, “METHODS FOR FIXING HAIR AND SKIN” (Olaplex, Inc., priority 2013, published 2023):

Columns and labels:
[1] = Perm of hair with binding formulation or hydrogen peroxide, 40 wash and dry cycles; set-up: species or system human; conditions: after 40 cycles of washing and drying with the same shampoo and conditioner; hair reduced with ammonium thioglycolate or dithiothreitol
Experimental: Hair samples were obtained from a human subject and cut in ½ inch wide wefts.
Reducing agents: Ammonium thioglycolate (ATG) was obtained from a permanent wave kit manufactured by Zotos. 300 mg of Dithiothreitol in a 10 g solution was also used as the reducing agent.
Binding formulation: A bismaleate binding agent 2,2′-(ethane-1,2-diylbis(oxy))bis(ethan-1-amine) di-maleate at a concentration of 300 mg in 10 g total solution (water) was used.
The hair was washed with clarifying shampoo, towel dried, and then rolled around a perm rod. Ammonium thioglycolate or dithiothreitol was then applied to the hair and left on the hair for 10 minutes to 1 hour. The hair was then rinsed for 30 seconds to 1 minute and then blotted dry with a towel.
The binding formulation was applied to the hair, via a needle nose applicator, drenching the hair. The binding agent was left on the hair for a period of about 7.5 minutes. The hair was drenched for a second time with the binding formulation and left for a second 7.5 minutes, for a total of 15 minutes. The hair was then rinsed with water for about 1-2 minutes then unrolled from the perm rods. After the hair was removed from the perm rods, the hair was shampooed and conditioned with various salon shampoo and conditioner brands, including LiQWd® Hydrating Shampoo and Hydrating Conditioner. The washing and drying steps were repeated 40 times. […]

[2] = Hair breakage after repeated perm, visual inspection; set-up: species or system human; conditions: perm procedure repeated three times over 48 hours
Experimental: Two hair samples were obtained. Both samples were treated with dithiothreitol or ammonium thioglycolate as described in Example 1. One of the hair samples was subsequently treated with the binding formulation, while the other was neutralized with hydrogen peroxide. The process was completed the same day for the hair treated with the binding formulation. The process was completed in three days with hydrogen peroxide (traditional perm).
The procedure was repeated three times for each hair sample over a 48 hour time period.

Compound: OO [hydrogen peroxide]
- reduction in the overall curl [1]: only slight reduction in the overall curl
- hair breakage upon visual inspection [2]: significant breakage
